# From patent US11504434B2, “Compositions and methods for targeted delivery of therapeutic and/or diagnostic agents” (THE PENN STATE RESEARCH FOUNDATION, priority 2016, dated 2022)
# How the values were obtained:
# [1] = tested on: 1205Lu cells; assay: CCK-8 cell viability, 1205Lu; format: cell-based, human
# Method: (§1) Pharmacological Studies. First, free PLX4032 toxicity and selectivity were confirmed by adding PLX4032 solutions at different concentrations into 96 well plates with THP-1, 1205Lu and WM35 cells separately (cell seeding density=5,000 cells/well). After 24 hrs incubation, the cells were washed with PBS twice and supplemented with 10 μl CCK-8 in 100 μl RPM-1640 medium in each well. After 2 hrs incubation, the absorbance at 450 nm of each well was measured by a micro-plate reader (TECAN infinite M200 PRO) and converted to the cell viability by normalized to control (tissue culture plates). Next, MTP-BPLP-PLA nanoparticles with and without PLX4032 loaded were dispersed in RPMI-1640 medium in various concentrations, followed by incubation with THP-1, 1205lu and WM35 cells (2,000 cells/well) separately in same conditions for 7 days. At last, MTP-BPLP-PLA-PLX4032 loaded THP-1 cells and pristine THP-1 cells were seeded with 1205lu or WM35 cells (2,000 cells/well) together with different ratios for 7 days, respectively. The cell viabilities were tested by CCK-8 assays as well.
# [2] = tested on: THP-1 cells; assay: CCK-8 cell viability, THP-1; format: cell-based; conditions: free drug, up to 100 μg/ml, 24 hrs
# Method: as §1
# [3] = tested on: WM35 cells; assay: CCK-8 cell viability, WM35; format: cell-based, human
# Method: as §1
# [4] = PLX4032 concentration higher than 5 μg/ml, 24 hrs
structure (smiles),measurement,setting,value
CCCS(=O)(=O)Nc1ccc(F)c(C(=O)c2c[nH]c3ncc(-c4ccc(Cl)cc4)cc23)c1F [PLX4032],free PLX4032 toxicity to 1205Lu,"[1]; 50 ng/ml, 24 hrs incubation",selectively killed
same,kill of melanomas (1205Lu),[1]; [4],~100%
same,THP-1 cell viability reduction,[2],no significant viability reduction
same,free PLX4032 toxicity to WM35,"[3]; 50 ng/ml, 24 hrs incubation",selectively killed
same,kill of melanomas (WM35),[3]; [4],~100%
